Measured values reported in the CheMixHub viscosity set.

Experiment: xn = mol fraction of the nth substance listed

CCCC(=O)OCC + C1CCCCC1
viscosity [mPa·s], 101 kPa
Details	298.15 K	308.15 K
x1 = 0.0551	0.852	0.72
x1 = 0.1552	0.796	0.667
x1 = 0.2554	0.75	0.626
x1 = 0.3554	0.711	0.594
x1 = 0.4504	0.682	0.573
x1 = 0.4992	0.669	0.564
x1 = 0.5558	0.656	0.557
x1 = 0.6532	0.638	0.549
x1 = 0.7547	0.624	0.548
x1 = 0.8532	0.616	0.554
x1 = 0.9564	0.613	0.568

CCCCN + C1CCCCC1
viscosity [mPa·s], 101 kPa
Details	303.15 K	313.15 K
x1 = 0.00966	0.8095	0.7083
x1 = 0.01973	0.8005	0.6998
x1 = 0.02822	0.7907	0.6925
x1 = 0.03804	0.7823	0.6831
x1 = 0.04713	0.7702	0.6749
x1 = 0.05811	0.758	0.6646
x1 = 0.0674	0.7469	0.6553
x1 = 0.07236	0.7374	0.6487
x1 = 0.08731	0.7267	0.637
x2 = 0.1009	0.453	–
x2 = 0.2007	0.467	–
x2 = 0.3012	0.492	–
x2 = 0.3987	0.501	–
x2 = 0.4982	0.529	–
x2 = 0.5729	0.553	–
x2 = 0.7003	0.601	–
x2 = 0.7863	0.652	–
x2 = 0.8993	0.725	–

CCCCN + C1COCCO1
298.15 K, 101 kPa
Details	viscosity [mPa·s]
x1 = 0.05	1.094
x1 = 0.1	1.019
x1 = 0.1005	1.018
x1 = 0.15	0.953
x1 = 0.2	0.896
x1 = 0.2025	0.893
x1 = 0.25	0.846
x1 = 0.2973	0.806
x1 = 0.3	0.801
x1 = 0.35	0.761
x1 = 0.3935	0.726
x1 = 0.4	0.725
x1 = 0.45	0.692
x1 = 0.4987	0.665
x1 = 0.5	0.662
x1 = 0.55	0.634
x1 = 0.5971	0.609
x1 = 0.6	0.609
x1 = 0.65	0.585
x1 = 0.6965	0.566
x1 = 0.7	0.564
x1 = 0.75	0.545
x1 = 0.7959	0.529
x1 = 0.8	0.528
x1 = 0.85	0.512
x1 = 0.9	0.498
x1 = 0.9041	0.497
x1 = 0.95	0.486

CCCCN + C=C(C)C(=O)OC
303.15 K, 101 kPa
Details	viscosity [mPa·s]
x2 = 0.1016	0.4525
x2 = 0.1939	0.4608
x2 = 0.3316	0.4724
x2 = 0.4989	0.4852
x2 = 0.5966	0.4921
x2 = 0.8001	0.5045
x2 = 0.9006	0.5097

O=[N+]([O-])[O-].[Ag+] + CC#N
298.15 K, 101 kPa
Details	viscosity [mPa·s]
x1 = 0.012	0.409
x1 = 0.03806	0.524
x1 = 0.1017	1.046
x1 = 0.2421	6.48

O=C(O)C(Cl)(Cl)Cl + CC(=O)O
298.15 K, 101 kPa
Details	viscosity [mPa·s]
x1 = 0.0737	1.532
x1 = 0.1777	2.228
x1 = 0.3209	3.362
x1 = 0.4348	4.346
x1 = 0.5262	5.176
x1 = 0.5853	5.859
x1 = 0.6581	6.854

CC(=O)[O-].[NH4+] + CC(=O)[O-].CC[n+]1ccn(C)c1
101 kPa
Details	viscosity [mPa·s]
298.15 K, x1 = 0.0503	152.5
303.15 K, x1 = 0.1703	185.5

O=C(O)C(Cl)(Cl)Cl + CC(=O)c1ccccc1
298.15 K, 101 kPa
Details	viscosity [mPa·s]
x1 = 0.0896	2.112
x1 = 0.14	2.402
x1 = 0.2121	2.931
x1 = 0.2939	3.735
x1 = 0.409	5.54
x1 = 0.4876	7.349
x1 = 0.5794	9.33
x1 = 0.6815	11.15

CCCCN + CC(C)(C)O
viscosity [mPa·s], 101 kPa
Details	x2 = 0.1	x2 = 0.2004	x2 = 0.2999	x2 = 0.4	x2 = 0.4996	x2 = 0.6	x2 = 0.7	x2 = 0.8	x2 = 0.9004	x2 = 0.95
303.15 K	0.5062	0.5833	0.681	0.804	0.9662	1.177	1.466	1.866	2.458	2.869
308.15 K	0.4732	0.541	0.6257	0.733	0.8694	1.046	1.279	1.591	2.021	2.3
313.15 K	0.4425	0.5022	0.5783	0.6716	0.7865	0.9346	1.119	1.363	1.68	1.874
318.15 K	0.4156	0.4687	0.5345	0.6159	0.7149	0.8377	0.9897	1.183	1.417	1.553
323.15 K	0.3905	0.4378	0.4957	0.5666	0.6519	0.7551	0.8801	1.031	1.21	1.309

CC[N+](=O)[O-] + CC(C)(C)O
viscosity [mPa·s], 101.33 kPa
Details	298.15 K	303.15 K	313.15 K
x2 = 0.0502	0.646	0.61	0.546
x2 = 0.1001	0.647	0.609	0.544
x2 = 0.1499	0.655	0.615	0.546
x2 = 0.2002	0.67	0.626	0.547
x2 = 0.2501	0.691	0.643	0.563
x2 = 0.3001	0.718	0.667	0.58
x2 = 0.35	0.753	0.694	0.597
x2 = 0.4	0.794	0.73	0.622
x2 = 0.4501	0.845	0.778	0.652
x2 = 0.5001	0.909	0.824	0.687
x2 = 0.55	0.988	0.886	0.728
x2 = 0.6	1.075	0.958	0.777
x2 = 0.6499	1.185	1.047	0.836
x2 = 0.6998	1.323	1.158	0.907
x2 = 0.7498	1.499	1.3	0.997
x2 = 0.7998	1.73	1.475	1.104
x2 = 0.8498	2.063	1.728	1.258
x2 = 0.8997	2.505	2.068	1.449
x2 = 0.95	3.231	2.574	1.718

Cc1ccncc1 + CC(C)(C)O
298.15 K, 101.33 kPa
Details	viscosity [mPa·s]
x2 = 0.0724	0.8901
x2 = 0.2166	0.9887
x2 = 0.2902	1.056
x2 = 0.3416	1.122
x2 = 0.507	1.386
x2 = 0.606	1.641
x2 = 0.6484	1.777
x2 = 0.7197	2.085
x2 = 0.8	2.537
x2 = 0.8603	2.959

O=C(O)C(Cl)(Cl)Cl + CC(C)=O
viscosity [mPa·s], 101 kPa
Details	298.15 K	308.15 K	318.15 K
x1 = 0.0484	0.368	–	–
x1 = 0.1316	0.4855	–	–
x1 = 0.165	–	0.5039	0.453
x1 = 0.2517	–	0.6893	0.6078
x1 = 0.2543	0.8156	–	–
x1 = 0.3485	–	1.01	0.8833
x1 = 0.3826	1.433	–	–
x1 = 0.4411	–	1.508	1.273
x1 = 0.5048	2.571	–	–
x1 = 0.5537	–	2.424	1.967
x1 = 0.5971	3.829	–	–
x1 = 0.6808	–	3.725	2.922
x1 = 0.7175	5.808	–	–
x1 = 0.7475	–	4.527	3.504
x1 = 0.8521	–	5.855	4.441
x1 = 0.9183	–	–	5.024

CCCCN + CC(C)CO
298.15 K, 101.32 kPa
Details	viscosity [mPa·s]
x2 = 0.1005	0.5513
x2 = 0.2	0.6546
x2 = 0.2984	0.7783
x2 = 0.3994	0.9361
x2 = 0.4997	1.135
x2 = 0.5998	1.373
x2 = 0.7007	1.674
x2 = 0.8122	2.126
x2 = 0.8939	2.593

CC[N+](=O)[O-] + CC(C)O
viscosity [mPa·s], 101.33 kPa
Details	293.15 K	303.15 K	313.15 K
x2 = 0.0501	0.68	0.605	0.536
x2 = 0.1	0.672	0.595	0.53
x2 = 0.15	0.671	0.592	0.526
x2 = 0.2	0.678	0.594	0.526
x2 = 0.25	0.698	0.601	0.53
x2 = 0.3	0.707	0.613	0.538
x2 = 0.35	0.729	0.628	0.546
x2 = 0.4	0.766	0.647	0.559
x2 = 0.4501	0.8	0.67	0.576
x2 = 0.5	0.827	0.697	0.597
x2 = 0.5499	0.881	0.731	0.62
x2 = 0.6001	0.932	0.777	0.648
x2 = 0.65	1	0.819	0.683
x2 = 0.7	1.08	0.877	0.725
x2 = 0.7499	1.18	0.949	0.774
x2 = 0.8	1.276	1.052	0.849
x2 = 0.8499	1.467	1.154	0.915
x2 = 0.9	1.681	1.305	1.021
x2 = 0.95	1.983	1.507	1.16

Cc1ccncc1 + CC(C)O
298.15 K, 101.33 kPa
Details	viscosity [mPa·s]
x2 = 0.0886	0.8731
x2 = 0.1711	0.8916
x2 = 0.2569	0.9174
x2 = 0.4424	0.9998
x2 = 0.5207	1.048
x2 = 0.6685	1.181
x2 = 0.8095	1.405
x2 = 0.8831	1.599

CCCCN + CCC(=O)O
viscosity [mPa·s], 101 kPa
Details	x2 = 0.2	x2 = 0.3	x2 = 0.4	x2 = 0.5	x2 = 0.6	x2 = 0.7	x2 = 0.75	x2 = 0.8	x2 = 0.875
293.15 K	1.82	15.13	63.74	0.5662	178	54.56	30.14	18.72	5.08
298.15 K	1.75	12.72	51.68	0.4002	137.5	43.2	25.03	15.68	4.48
303.15 K	1.63	10.92	41.89	–	107.7	35.21	20.17	13	4.05
308.15 K	1.56	9.48	34.98	–	85.1	29.21	17.49	11.15	3.57
313.15 K	1.44	8.34	29.06	176.5	71.2	24.51	15.02	–	3.09
313.5 K	–	–	–	–	–	–	–	9.51	–
318.15 K	1.41	7.31	24.58	136.6	57.9	20.64	12.59	8.34	2.86
323.15 K	–	6.66	21.02	112.7	47.7	17.83	11.15	7.33	2.73

CCCCN + CCC(C)=O
303.15 K, 101.33 kPa
Details	viscosity [mPa·s]
x1 = 0.0943	0.482
x1 = 0.181	0.593
x1 = 0.2823	0.732
x1 = 0.4616	0.924
x1 = 0.5768	0.967
x1 = 0.674	0.914
x1 = 0.7814	0.819
x1 = 0.891	0.671

CC[N+](=O)[O-] + CCC(C)O
viscosity [mPa·s], 101.33 kPa
Details	293.15 K	303.15 K	313.15 K
x2 = 0.05	0.679	0.605	0.543
x2 = 0.1	0.68	0.601	0.538
x2 = 0.15	0.684	0.604	0.536
x2 = 0.2001	0.704	0.616	0.542
x2 = 0.25	0.727	0.632	0.555
x2 = 0.3002	0.759	0.652	0.569
x2 = 0.35	0.793	0.676	0.586
x2 = 0.4	0.845	0.716	0.61
x2 = 0.45	0.904	0.75	0.64
x2 = 0.5	0.971	0.8	0.675
x2 = 0.55	1.034	0.847	0.707
x2 = 0.5999	1.123	0.909	0.75
x2 = 0.6499	1.236	0.98	0.801
x2 = 0.7	1.378	1.07	0.862
x2 = 0.7497	1.516	1.169	0.935
x2 = 0.8	1.723	1.319	1.026
x2 = 0.8499	1.983	1.484	1.144
x2 = 0.8998	2.353	1.724	1.304
x2 = 0.9499	2.873	2.05	1.511

Cc1ccncc1 + CCC(C)O
298.15 K, 101.33 kPa
Details	viscosity [mPa·s]
x2 = 0.0808	0.8992
x2 = 0.1812	0.9547
x2 = 0.2378	0.9923
x2 = 0.3187	1.047
x2 = 0.3221	1.052
x2 = 0.3999	1.131
x2 = 0.4574	1.186
x2 = 0.5582	1.328
x2 = 0.6284	1.445
x2 = 0.7034	1.608
x2 = 0.8528	2.092
x2 = 0.9272	2.446
